Values after ≈ are worked out from the molar mass of the structure shown. Like-named read-outs stand apart in the source and are kept apart here.
Legend:
[1] = system: carrageenan rat paw edema; experiment: Rat Paw Edema Assay, Oral Dosing; format: in vivo; conditions: 4 h, four hours after drug, read-out: % Difference from Control; for change in vivo at 100 mg/kg: 100 mg/kg oral; for change in vivo at 400 mg/kg: 400 mg/kg oral
Description: (§1) The anti-inflammatory activity of representative compounds of this invention was determined by the rat paw edema assay both by local administration (Table XI below) and by oral dosing (Table XII below). For the oral dosing, the procedure of C. A. Winter, E. A. Risley and G. W. Nuss, Proc. Soc. Exp. Biol. Med. III, 544 (1962) was employed with measurement taken four hours after the drug was administered. The local administration tests were carried out similarly except the irritant (carrageenan) and the test compound were injected simultaneously at time zero.
(§2) Tables XI and XII report the anti-inflammatory activity of the compounds tested as % difference in the edema or swelling as compared with the control. These Tables also give the response in many instances of more than one dose level of the same drug.

[2] = system: carrageenan rat paw edema; experiment: Rat Paw Edema Assay, Local Administration; format: in vivo; conditions: read-out: % Difference from Control; for change in vivo at 100 mg/kg: local administration; for change in vivo at 0.001 mg: 1 μg; for change in vivo at 0.001 mg / change in vivo at 0.01 mg / change in vivo at 0.1 mg: injected directly into paw; for change in vivo at 0.01 mg: 10 μg; for change in vivo at 0.1 mg: 100 μg
Description: as §1, §2

[3] = system: Trichophyton mentagrophytes; experiment: Antifungal activity, agar dilution method; format: cell-based, Trichophyton mentagrophytes (ATCC No. 8757 and 9129); conditions: T. mentagrophytes, read-out: Parts Per Million Inhibitions of T. mentagrophytes
Description: (§3) various compounds of this invention display antifungal and anti-yeast activity.
(§4) In Table IX below are listed the antifungal activity of a number of compounds encompassed in the present invention. These were determined by the agar dilution method as described in Chapters 2 and 3 of Methods in Microbiology, Vol. 7B, edited by J. R. Norris and D. W. Ribbons, Academic Press, New York, 1972.

[4] = system: Trichophyton rubrum; experiment: Antifungal activity, agar dilution method; format: cell-based, Trichophyton rubrum (ATCC No. 10218 and 14001); conditions: T. rubrum, read-out: Parts Per Million Inhibitions of T. rubrum
Description: as §3, §4

[5] = system: Trichophyton ajelloi; experiment: Antifungal activity, agar dilution method; format: cell-based; conditions: Arthroderma uncinatum, T. ajelloi, read-out: Parts Per Million Inhibitions of T. ajelloi
Description: as §3, §4

[6] = system: humeral or antibody response; experiment: hemolysin test in mice; format: in vivo; conditions: Mus musculus, sc, dose reducing antibody activity by 50% vs control, read-out: HL(ED50)
[7] = system: cell-mediated immune response to the antigen, Mycobacterium tuberculosis H37Ra; experiment: delayed hypersensitivity test; format: in vivo, mouse; conditions: Mus musculus, sc, read-out: D.H.S. (ED60)
Description: The immunosuppressant activities of the compounds of this invention were determined via the hemolysin test in mice and by the delayed hypersensitivity test. The hemolysin test used is that described in Methods in Immunology, edited by D. H. Campbell et al, W. A. Benjamin, New York 1963 pages 172-175, and measures humeral or antibody response. The delayed hypersensitivity test measures the effect of a test compound on the ability of a subject mouse to mount a cell-mediated immune response to the antigen, Mycobacterium tuberculosis H37Ra. The mouse is sensitized to the antigen by subcutaneous administration in the base of the tail. The development of the delayed hypersensitivity response may be measured at any time beginning six days after sensitization but is usually done on the ninth day as follows: The right hind paw is injected with purified protein derivative (tuberculin) while the left hind paw (control) receives physiological saline. Both paw volumes are measured after twenty-four hours and significant increase in the volume of the right hand paw is taken as a measure of an effective delayed hypersensitivity response. All compounds were administered by the subcutaneous route.
The D.H.S. (ED60) mg./kg. s.c. value appearing in column 3 is an expression of the effectiveness of the drug in reducing the edema that accompanies the cell-mediated immune response. It is a measure of the number of milligrams per kilogram of body weight of the drug administered subcutaneously which is required to reduce the edema of the cell-mediated immune response by 60% when compared to the control.

[8] = system: Candida tropicalis; experiment: Antifungal activity, agar dilution method; format: cell-based; conditions: C. tropicalis, read-out: Parts Per Million Inhibitions of C. tropicalis
Description: as §3, §4

[9] = mice, dose reducing edema of cell-mediated immune response by 60% vs control

Row | SMILES | change in vivo at 100 mg/kg [1] [%] | MIC [3] [µg/mL] | MIC [4] [µg/mL] | MIC [5] [µg/mL] | ED50 [6] [mg/kg] | also measured
1 | CCCCCCC(=O)Nc1ccccc1-n1ccnc1 [Compound 7] | -52 |  |  |  |  | change in vivo at 100 mg/kg [2]: -22%
2 | CCCCCCCC(=O)Nc1ccccc1-n1ccnc1 [Compound 8] | -22 | 8 (≈ 28 µM) | 8 (≈ 28 µM) |  |  | change in vivo at 400 mg/kg [1]: -13%
3 | CCCCCCCCC(=O)Nc1ccccc1-n1ccnc1 [Compound 9] |  | 16 (≈ 53.4 µM) | 16 (≈ 53.4 µM) |  |  | 
4 | CCCCCCCCCC(=O)Nc1ccccc1-n1ccnc1 [Compound 10] | -30 | 16 (≈ 51 µM) | 16 (≈ 51 µM) |  |  | 
5 | C=CCCCCCCCCC(=O)Nc1ccccc1-n1ccnc1 [Compound 16] |  | 4 (≈ 12.3 µM) | 2 (≈ 6.15 µM) |  |  | 
6 | O=C(C=Cc1ccccc1)Nc1ccccc1-n1ccnc1 [Compound 20] | -59 | 100 (≈ 346 µM) |  | 100 (≈ 346 µM) |  | 
7 | Cc1ccccc1C(=O)Nc1ccccc1-n1ccnc1 [Compound 35] | -50 | 16 (≈ 57.7 µM) |  | 100 (≈ 361 µM) |  | 
8 | CC(C)(C)c1ccc(C(=O)Nc2ccccc2-n2ccnc2)cc1 [Compound 39] | -50 | 100 (≈ 313 µM) |  | 100 (≈ 313 µM) |  | 
9 | O=C(Nc1ccccc1-n1ccnc1)c1ccccc1Cl [Compound 49] | -35 |  |  |  |  | change in vivo at 100 mg/kg [2]: -35%
10 | O=C(Nc1ccccc1-n1ccnc1)c1ccc(Cl)cc1 [Compound 51] | -57 |  |  |  |  | change in vivo at 100 mg/kg [2]: -57%
11 | COc1ccccc1C(=O)Nc1ccccc1-n1ccnc1 [Compound 58] |  | 100 (≈ 341 µM) | 100 (≈ 341 µM) | 100 (≈ 341 µM) |  | 
12 | O=C(Nc1ccccc1-n1ccnc1)c1ccc2ccccc2c1 [Compound 62] |  | 100 (≈ 319 µM) | 100 (≈ 319 µM) | 100 (≈ 319 µM) |  | 
13 | CCCc1nc2ccccc2n2ccnc12 [Compound 112] | -17 | 128 (≈ 606 µM) | 64 (≈ 303 µM) |  |  | change in vivo at 400 mg/kg [1]: -68%
14 | CCCCCc1nc2ccccc2n2ccnc12 [Compound 114] | -61 | 16 (≈ 66.9 µM) | 1 (≈ 4.18 µM) |  |  | change in vivo at 0.001 mg [2]: 68.2%; change in vivo at 0.01 mg [2]: -30%; change in vivo at 0.1 mg [2]: -132%
15 | CCCCCCCc1nc2ccccc2n2ccnc12 [Compound 116] | 104 | 16 (≈ 59.8 µM) | 16 (≈ 59.8 µM) |  | > 50 | change in vivo at 400 mg/kg [1]: -18%; ED60 [7, 9]: 56 mg/kg
16 | CCCCCCCCCc1nc2ccccc2n2ccnc12 [Compound 118] |  | 256 (≈ 867 µM) | 4 (≈ 13.5 µM) |  | > 50 | ED60 [7, 9]: 43 mg/kg
17 | FC(F)(F)c1nc2ccccc2n2ccnc12 [Compound 122] | -61 |  | 32 (≈ 135 µM) |  |  | change in vivo at 100 mg/kg [2]: -61%
18 | c1ccc(OCc2nc3ccccc3n3ccnc23)cc1 [Compound 126] |  | 100 (≈ 363 µM) | 100 (≈ 363 µM) | 100 (≈ 363 µM) | 35 | ED60 [7, 9]: > 50 mg/kg
19 | C(=Cc1nc2ccccc2n2ccnc12)c1ccccc1 [Compound 127] |  | 16 (≈ 59 µM) | 16 (≈ 59 µM) |  | > 50 | ED60 [7, 9]: 36 mg/kg
20 | c1ccc2c(c1)nc(C1CCCCC1)c1nccn12 [Compound 129] | -30 | 16 (≈ 63.7 µM) | 8 (≈ 31.8 µM) | 16 (≈ 63.7 µM) |  | 
21 | Cc1ccccc1-c1nc2ccccc2n2ccnc12 [Compound 132] | -76 | 100 (≈ 386 µM) |  | 100 (≈ 386 µM) |  | 
22 | Cc1ccc(-c2nc3ccccc3n3ccnc23)cc1 [Compound 134] | -43 | 16 (≈ 61.7 µM) |  | 100 (≈ 386 µM) | 0.5 | ED60 [7, 9]: 7.2 mg/kg
23 | c1ccc(-c2ccc(-c3nc4ccccc4n4ccnc34)cc2)cc1 [Compound 135] |  | 100 (≈ 311 µM) |  | 100 (≈ 311 µM) | 0.033 | ED60 [7, 9]: 0.22 mg/kg

Row | SMILES | change in vivo at 100 mg/kg [1] [%] | MIC [3] [µg/mL] | MIC [4] [µg/mL] | MIC [5] [µg/mL] | ED50 [6] [mg/kg] | also measured
24 | CC(C)(C)c1ccc(-c2nc3ccccc3n3ccnc23)cc1 [Compound 137] | -26 | 100 (≈ 332 µM) |  | 100 (≈ 332 µM) | < 0.125 | ED60 [7, 9]: 3.2 mg/kg
25 | COc1ccc(-c2nc3ccccc3n3ccnc23)cc1 [Compound 138] |  | 100 (≈ 363 µM) |  | 100 (≈ 363 µM) | 0.72 | ED60 [7, 9]: 27 mg/kg
26 | Clc1ccc(-c2nc3ccccc3n3ccnc23)cc1 [Compound 140] | -35 |  | < 0.5 |  | 0.26 | change in vivo at 100 mg/kg [2]: -78%; ED60 [7, 9]: 1.15 mg/kg
27 | Brc1ccccc1-c1nc2ccccc2n2ccnc12 [Compound 145] |  | 100 (≈ 308 µM) | 100 (≈ 308 µM) | 100 (≈ 308 µM) |  | 
28 | O=C(O)c1ccccc1-c1nc2ccccc2n2ccnc12 [Compound 148] | -52 |  |  |  |  | change in vivo at 0.001 mg [2]: -32.6%; change in vivo at 0.01 mg [2]: -53.5%; change in vivo at 0.1 mg [2]: -14.3%; change in vivo at 100 mg/kg [2]: -39%
29 | O=[N+]([O-])c1ccc(-c2nc3ccccc3n3ccnc23)cc1 [Compound 151] |  |  | 1 (≈ 3.44 µM) |  | 0.3 | ED60 [7, 9]: 1.52 mg/kg
30 | Nc1ccc(-c2nc3ccccc3n3ccnc23)cc1 [Compound 153] |  |  |  |  | 1.2 | MIC [8]: 100 µg/mL (≈ 384 µM); ED60 [7, 9]: 5.7 mg/kg
31 | COc1cccc(-c2nc3ccccc3n3ccnc23)c1 [Compound 159] |  | 100 (≈ 363 µM) | 100 (≈ 363 µM) | 100 (≈ 363 µM) | 3 | ED60 [7, 9]: 27 mg/kg
32 | c1ccc2c(-c3nc4ccccc4n4ccnc34)cccc2c1 [Compound 160] |  | 100 (≈ 339 µM) | 100 (≈ 339 µM) | 100 (≈ 339 µM) |  | 
33 | CC(=O)Oc1ccc(-c2nc3ccccc3n3ccnc23)cc1 [Compound 163] |  | 100 (≈ 330 µM) | 100 (≈ 330 µM) | 100 (≈ 330 µM) |  | 
34 | CCCC(=O)Oc1ccc(-c2nc3ccccc3n3ccnc23)cc1 [Compound 164] |  | 100 (≈ 302 µM) | 100 (≈ 302 µM) | 100 (≈ 302 µM) |  | 
35 | CCCCCCCCCC(=O)Oc1ccc(-c2nc3ccccc3n3ccnc23)cc1 [Compound 165] |  | 100 (≈ 241 µM) | 100 (≈ 241 µM) | 100 (≈ 241 µM) |  | 
36 | c1ccc2c(c1)nc(NC1CCCCC1)c1nccn12 [Compound 167] |  | 100 (≈ 375 µM) | 100 (≈ 375 µM) | 100 (≈ 375 µM) |  | 
37 | CCCCNc1nc2ccccc2n2ccnc12 [Compound 168] |  | 100 (≈ 416 µM) | 100 (≈ 416 µM) | 100 (≈ 416 µM) |  | 
38 | CCCNc1nc2ccccc2n2ccnc12 [Compound 169] |  | 100 (≈ 442 µM) | 100 (≈ 442 µM) | 100 (≈ 442 µM) | 46 | ED60 [7]: > 50 mg/kg
39 | Fc1ccccc1-c1nc2ccccc2n2ccnc12 [Compound 173] |  | 100 (≈ 380 µM) | 100 (≈ 380 µM) | 100 (≈ 380 µM) |  | ED60 [7, 9]: 40 mg/kg
40 | Clc1cccc(Nc2nc3ccccc3n3ccnc23)c1 [Compound 179] |  | 100 (≈ 339 µM) | 100 (≈ 339 µM) | 100 (≈ 339 µM) |  | 
41 | Fc1ccc(Nc2nc3ccccc3n3ccnc23)cc1 [Compound 182] |  |  | 100 (≈ 359 µM) |  | 1.1 | 
42 | COc1ccccc1Nc1nc2ccccc2n2ccnc12 [Compound 184] |  | 100 (≈ 344 µM) | 100 (≈ 344 µM) | 100 (≈ 344 µM) |  | 
43 | COc1cccc(Nc2nc3ccccc3n3ccnc23)c1 [Compound 185] |  | 100 (≈ 344 µM) | 100 (≈ 344 µM) | 100 (≈ 344 µM) |  | 
44 | COc1ccc(Nc2nc3ccccc3n3ccnc23)cc1 [Compound 186] |  | 100 (≈ 344 µM) | 100 (≈ 344 µM) | 100 (≈ 344 µM) |  | 
45 | O=[N+]([O-])c1ccccc1Nc1nc2ccccc2n2ccnc12 [Compound 187] |  |  | 100 (≈ 328 µM) | 100 (≈ 328 µM) |  | 
46 | O=[N+]([O-])c1ccc(Nc2nc3ccccc3n3ccnc23)cc1 [Compound 189] |  |  | 100 (≈ 328 µM) | 100 (≈ 328 µM) |  | 

— patent US4160097A, “1-(2-Phenylureylene)imidazoles” (Westwind Pharmaceuticals, Inc., priority 1977, dated 1979)
